Laboratory results from PubChem BioAssay (NCI).
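Grown in 96-well plates, cells were treated for 48 hours with each compound at five concentrations. Insufficient inhibition: endpoint recorded as highest concentration tested. The concentration for full growth arrest is given as TGI.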 Where a SMILES comes first, the peptide text is derived from it. [ ]: non-standard residue; d: D form. The star is where a group is joined. NMeF = CN[CH](Cc1ccccc1)C(=O)O; NMeV = CN[CH](C(=O)O)C(C)C; Boc = CC(C)(C)OC(=O)*

Legend:
Experiment in all cases: NCI-60 cell line screen, 48 h
[1] = tested on: DMS 114 small cell lung
[2] = tested on: RPMI-8226 leukemia
[3] = tested on: KM20L2 colon
[4] = tested on: COLO 205 colon
[5] = tested on: HT29 colon
[6] = tested on: OVCAR-3 ovarian
[7] = tested on: NCI-H226 lung
[8] = tested on: K-562 leukemia
[9] = tested on: KM12 colon
[10] = tested on: SK-OV-3 ovarian
[11] = tested on: XF 498 CNS
[12] = tested on: SNB-19 CNS
[13] = tested on: HCT-116 colon
[14] = tested on: HOP-62 NSCLC
[15] = tested on: TK-10 renal
[16] = tested on: UACC-257 melanoma
[17] = tested on: DMS 273 small cell lung
[18] = tested on: UACC-62 melanoma
[19] = tested on: SK-MEL-28 melanoma
[20] = tested on: UO-31 renal
[21] = tested on: OVCAR-5 ovarian
[22] = tested on: SF-539 CNS
[23] = tested on: A549 NSCLC
[24] = tested on: M14 melanoma
[25] = tested on: SK-MEL-2 melanoma
[26] = tested on: ACHN renal
[27] = tested on: NCI-H522 lung
[28] = tested on: SW-620 colon
[29] = tested on: HCC-2998 colon
[30] = tested on: HCT-15 colon
[31] = tested on: CAKI-1 renal
[32] = tested on: SK-MEL-5 melanoma
[33] = tested on: HL-60(TB) leukemia
[34] = tested on: MOLT-4 leukemia
[35] = tested on: SNB-75 CNS
[36] = tested on: HOP-92 NSCLC
[37] = tested on: NCI-H23 lung
[38] = tested on: NCI-H460 lung
[39] = tested on: U251 CNS
[40] = tested on: CCRF-CEM leukemia
[41] = tested on: SN12C renal
[42] = tested on: LOX IMVI melanoma
[43] = tested on: M19-MEL melanoma
[44] = tested on: SF-268 CNS
[45] = tested on: EKVX NSCLC
[46] = tested on: OVCAR-8 ovarian
[47] = tested on: 786-0 renal
[48] = tested on: RXF 393 renal
[49] = tested on: IGROV1 ovarian
[50] = tested on: SR leukemia
[51] = tested on: LXFL 529 NSCLC
[52] = tested on: DLD-1 colon
[53] = tested on: MALME-3M melanoma
[54] = tested on: HOP-18 NSCLC
[55] = tested on: SF-295 CNS
[56] = tested on: SNB-78 CNS
[57] = tested on: A498 renal
[58] = tested on: OVCAR-4 ovarian

With `O=c1nc2n(c3nsnc13)CCO2` the TGI [1] was > 100 µM, the TGI [2] was > 100 µM and the TGI [3] was > 100 µM. The TGI [4] was > 100 µM, the TGI [5] was > 100 µM and the TGI [6] was > 100 µM. For the same molecule, the TGI [7] was > 100 µM, the TGI [8] was > 100 µM and the TGI [9] was > 100 µM. For the same molecule, the TGI [10] was > 100 µM, the TGI [11] was > 100 µM and the TGI [12] was > 100 µM. The TGI [13] was > 100 µM, the TGI [14] was > 100 µM and the TGI [15] was > 100 µM. For the same molecule, the TGI [16] was > 100 µM, the TGI [17] was > 100 µM and the TGI [18] was > 100 µM. The TGI [19] was > 100 µM, the TGI [20] was > 100 µM and the TGI [21] was > 100 µM. The TGI [22] was > 100 µM, the TGI [23] was > 100 µM and the TGI [24] was > 100 µM. For the same molecule, the TGI [25] was > 100 µM, the TGI [26] was > 100 µM and the TGI [27] was > 100 µM. For the same molecule, the TGI [28] was > 100 µM, the TGI [29] was > 100 µM and the TGI [30] was > 100 µM. For the same molecule, the TGI [31] was > 100 µM, the TGI [32] was > 100 µM and the TGI [33] was > 100 µM. For the same molecule, the TGI [34] was > 100 µM, the TGI [35] was > 100 µM and the TGI [36] was > 100 µM. For the same molecule, the TGI [37] was > 100 µM, the TGI [38] was > 100 µM and the TGI [39] was > 100 µM. For the same molecule, the TGI [40] was > 100 µM, the TGI [41] was > 100 µM and the TGI [42] was > 100 µM. The TGI [43] was > 100 µM, the TGI [44] was > 100 µM and the TGI [45] was > 100 µM. The TGI [46] was > 100 µM, the TGI [47] was > 100 µM and the TGI [48] was > 100 µM. For the same molecule, the TGI [49] was > 100 µM, the TGI [50] was > 100 µM and the TGI [51] was > 100 µM. For the same molecule, the TGI [52] was > 100 µM and the TGI [53] was > 100 µM.

With `N#CC(C#N)=c1ccc(=C2N3CCCC3CN2C23CC4CC(CC(C4)C2)C3)cc1` (stereo not drawn) the TGI [1] was > 100 µM, the TGI [2] was > 100 µM and the TGI [3] was > 100 µM. The TGI [4] was > 100 µM, the TGI [5] was > 100 µM and the TGI [6] was > 100 µM. For the same molecule, the TGI [7] was > 100 µM, the TGI [8] was > 100 µM and the TGI [9] was > 100 µM. For the same molecule, the TGI [10] was > 100 µM, the TGI [12] was > 100 µM and the TGI [13] was > 100 µM. For the same molecule, the TGI [14] was > 100 µM, the TGI [54] was > 100 µM and the TGI [15] was > 100 µM. The TGI [16] was > 100 µM, the TGI [17] was > 100 µM and the TGI [18] was > 100 µM. For the same molecule, the TGI [19] was > 100 µM, the TGI [20] was > 100 µM and the TGI [21] was > 100 µM. For the same molecule, the TGI [22] was > 100 µM, the TGI [23] was > 100 µM and the TGI [24] was > 100 µM. The TGI [25] was > 100 µM, the TGI [26] was > 100 µM and the TGI [27] was > 100 µM. The TGI [28] was > 100 µM, the TGI [29] was > 100 µM and the TGI [30] was > 100 µM. The TGI [32] was > 100 µM, the TGI [33] was > 100 µM and the TGI [34] was > 100 µM. The TGI [35] was 78.8 µM, the TGI [36] was > 100 µM and the TGI [37] was > 100 µM. The TGI [38] was > 100 µM, the TGI [39] was > 100 µM and the TGI [55] was > 100 µM. For the same molecule, the TGI [40] was > 100 µM, the TGI [41] was > 100 µM and the TGI [42] was > 100 µM. For the same molecule, the TGI [43] was > 100 µM, the TGI [44] was > 100 µM and the TGI [45] was > 100 µM. For the same molecule, the TGI [46] was > 100 µM, the TGI [47] was > 100 µM and the TGI [48] was > 100 µM. For the same molecule, the TGI [56] was > 100 µM, the TGI [49] was > 100 µM and the TGI [50] was > 100 µM. For the same molecule, the TGI [51] was > 100 µM, the TGI [52] was > 100 µM and the TGI [53] was > 100 µM.

With `CC(C)C(NC(=O)OC(C)(C)C)C(=O)N(C)C(Cc1ccccc1)C(=O)N(C)C(C(=O)N(C)C(C(=O)O)C(C)C)C(C)C` (stereo not drawn) (Boc-V[NMeF][NMeV][NMeV]-OH; configuration not given here) the TGI [1] was > 100 µM, the TGI [2] was > 100 µM and the TGI [3] was > 100 µM. The TGI [4] was > 100 µM, the TGI [5] was > 100 µM and the TGI [6] was > 100 µM. The TGI [7] was > 100 µM, the TGI [8] was > 100 µM and the TGI [9] was > 100 µM. For the same molecule, the TGI [11] was > 100 µM, the TGI [12] was > 100 µM and the TGI [13] was > 100 µM. For the same molecule, the TGI [14] was > 100 µM, the TGI [15] was > 100 µM and the TGI [16] was > 100 µM. For the same molecule, the TGI [17] was > 100 µM, the TGI [18] was > 100 µM and the TGI [19] was > 100 µM. The TGI [20] was > 100 µM, the TGI [22] was > 100 µM and the TGI [23] was > 100 µM. For the same molecule, the TGI [24] was > 100 µM, the TGI [26] was > 100 µM and the TGI [27] was > 100 µM. For the same molecule, the TGI [28] was > 100 µM, the TGI [29] was > 100 µM and the TGI [30] was > 100 µM. For the same molecule, the TGI [32] was > 100 µM, the TGI [33] was > 100 µM and the TGI [34] was > 100 µM. For the same molecule, the TGI [37] was > 100 µM, the TGI [38] was > 100 µM and the TGI [39] was > 100 µM. For the same molecule, the TGI [55] was > 100 µM, the TGI [40] was > 100 µM and the TGI [41] was > 100 µM. For the same molecule, the TGI [42] was > 100 µM, the TGI [43] was > 100 µM and the TGI [44] was > 100 µM. For the same molecule, the TGI [45] was > 100 µM, the TGI [46] was > 100 µM and the TGI [47] was > 100 µM. The TGI [48] was > 100 µM, the TGI [49] was > 100 µM and the TGI [50] was > 100 µM. The TGI [51] was > 100 µM and the TGI [53] was > 100 µM.

In the case of `C[C@]12CC[C@H](O)CC1=CC[C@@H]1C2CC[C@]2(C)NC(=O)C(C#N)CC12` (stereo partly drawn), the TGI [1] is reported as > 100 µM, the TGI [2] is reported as > 100 µM and the TGI [3] is reported as > 100 µM. For the same molecule, the TGI [5] was > 100 µM, the TGI [6] was > 100 µM and the TGI [7] was > 100 µM. The TGI [8] was > 100 µM, the TGI [9] was > 100 µM and the TGI [10] was > 100 µM. For the same molecule, the TGI [11] was > 100 µM, the TGI [13] was > 100 µM and the TGI [14] was > 100 µM. For the same molecule, the TGI [15] was > 100 µM, the TGI [16] was > 100 µM and the TGI [17] was > 100 µM. For the same molecule, the TGI [18] was > 100 µM, the TGI [19] was > 100 µM and the TGI [20] was > 100 µM. For the same molecule, the TGI [21] was > 100 µM, the TGI [22] was > 100 µM and the TGI [23] was > 100 µM. For the same molecule, the TGI [24] was > 100 µM, the TGI [25] was > 100 µM and the TGI [26] was > 100 µM. For the same molecule, the TGI [57] was > 100 µM, the TGI [28] was > 100 µM and the TGI [29] was > 100 µM. The TGI [30] was > 100 µM, the TGI [31] was > 100 µM and the TGI [32] was > 100 µM. The TGI [33] was > 100 µM, the TGI [34] was > 100 µM and the TGI [35] was > 100 µM. The TGI [58] was > 100 µM, the TGI [37] was > 100 µM and the TGI [38] was > 100 µM. For the same molecule, the TGI [39] was > 100 µM, the TGI [55] was > 100 µM and the TGI [40] was > 100 µM. The TGI [43] was > 100 µM, the TGI [45] was > 100 µM and the TGI [46] was > 100 µM. The TGI [47] was > 100 µM, the TGI [48] was > 100 µM and the TGI [56] was > 100 µM. The TGI [49] was > 100 µM, the TGI [51] was > 100 µM and the TGI [52] was > 100 µM. The TGI [53] was > 100 µM.
